Legend:
[1] = target: Serine/threonine-protein kinase Sgk1 (Homo sapiens, UniProt O00141); assay: Inhibition of SGK1
[2] = target: Proto-oncogene tyrosine-protein kinase Src (Homo sapiens, UniProt P12931); assay: Inhibition of Src after 10 mins by radiometric phosphate incorporation assay
Aurora kinase A = Aurora kinase A (Homo sapiens, UniProt O14965); assay: Inhibition of AURORA A
[3] = Octanol-phosphate buffer partition coefficient, log D of the compound at pH 7.4 by HPLC analysis; assay type: physicochemical
[4] = target: T1, Receptor-type tyrosine-protein kinase FLT3 (Homo sapiens, UniProt P36888); assay: Inhibition of Flt3 after 20 mins by radiometric phosphate incorporation assay
T1 sequence (P36888 whole entry): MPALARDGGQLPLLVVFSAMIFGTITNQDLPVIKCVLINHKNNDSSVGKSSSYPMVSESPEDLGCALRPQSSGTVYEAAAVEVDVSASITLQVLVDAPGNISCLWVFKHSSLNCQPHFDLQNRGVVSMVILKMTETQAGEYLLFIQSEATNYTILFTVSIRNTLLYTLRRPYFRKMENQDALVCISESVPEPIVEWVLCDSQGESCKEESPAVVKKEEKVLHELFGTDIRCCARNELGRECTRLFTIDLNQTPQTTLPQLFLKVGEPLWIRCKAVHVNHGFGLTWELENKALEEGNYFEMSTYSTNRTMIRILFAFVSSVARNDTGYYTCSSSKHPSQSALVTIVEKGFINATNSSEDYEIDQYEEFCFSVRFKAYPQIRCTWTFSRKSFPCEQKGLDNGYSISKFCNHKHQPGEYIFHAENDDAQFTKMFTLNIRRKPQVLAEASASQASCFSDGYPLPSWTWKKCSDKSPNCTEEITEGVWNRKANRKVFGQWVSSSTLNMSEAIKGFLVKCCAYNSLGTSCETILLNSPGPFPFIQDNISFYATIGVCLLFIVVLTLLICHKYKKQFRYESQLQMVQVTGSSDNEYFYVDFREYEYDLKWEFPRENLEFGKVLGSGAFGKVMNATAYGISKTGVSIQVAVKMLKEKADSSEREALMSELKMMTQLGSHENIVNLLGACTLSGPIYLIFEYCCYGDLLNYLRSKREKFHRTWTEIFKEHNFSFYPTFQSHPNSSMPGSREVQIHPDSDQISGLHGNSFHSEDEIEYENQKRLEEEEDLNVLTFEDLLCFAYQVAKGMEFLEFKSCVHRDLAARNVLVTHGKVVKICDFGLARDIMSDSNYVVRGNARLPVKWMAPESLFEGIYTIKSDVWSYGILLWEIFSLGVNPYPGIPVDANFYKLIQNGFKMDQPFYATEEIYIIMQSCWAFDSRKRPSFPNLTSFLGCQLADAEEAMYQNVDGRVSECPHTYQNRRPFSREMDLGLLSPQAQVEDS

[5] = target: T2, Tyrosine-protein kinase ITK/TSK (Homo sapiens, UniProt Q08881); assay: Inhibition of Itk after 40 mins by radiometric phosphate incorporation assay
T2 sequence (Q08881 whole entry): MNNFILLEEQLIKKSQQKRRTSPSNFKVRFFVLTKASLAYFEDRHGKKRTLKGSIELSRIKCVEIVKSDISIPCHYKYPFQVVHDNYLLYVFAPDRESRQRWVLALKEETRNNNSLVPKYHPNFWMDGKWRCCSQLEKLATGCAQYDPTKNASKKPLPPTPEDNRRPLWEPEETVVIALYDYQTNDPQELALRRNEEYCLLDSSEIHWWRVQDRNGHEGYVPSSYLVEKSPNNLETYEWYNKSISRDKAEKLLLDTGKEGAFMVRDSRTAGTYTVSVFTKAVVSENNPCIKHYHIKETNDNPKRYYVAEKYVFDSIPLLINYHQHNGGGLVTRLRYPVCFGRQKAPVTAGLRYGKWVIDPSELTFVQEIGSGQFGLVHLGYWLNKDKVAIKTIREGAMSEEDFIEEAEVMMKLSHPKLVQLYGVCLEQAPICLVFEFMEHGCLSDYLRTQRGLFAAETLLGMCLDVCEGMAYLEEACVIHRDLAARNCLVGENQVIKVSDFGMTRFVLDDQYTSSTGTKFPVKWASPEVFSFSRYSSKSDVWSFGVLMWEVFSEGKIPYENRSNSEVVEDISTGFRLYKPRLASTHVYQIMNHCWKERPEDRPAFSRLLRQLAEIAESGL

[6] = target: Cyclin-dependent kinase 1 (Homo sapiens, UniProt P06493); assay: Inhibition of CDK1
[7] = target: Tyrosine-protein kinase BTK (Homo sapiens, UniProt Q06187); assay: Inhibition of BTK
[8] = target: Death-associated protein kinase 3 (Homo sapiens, UniProt O43293); assay: Inhibition of ZIPK
[9] = target: Serine/threonine-protein kinase N2 (Homo sapiens, UniProt Q16513); assay: Inhibition of PRK2
[10] = target: Tyrosine-protein kinase Fyn (Homo sapiens, UniProt P06241); assay: Inhibition of FYN
[11] = target: Tyrosine-protein kinase Fer (Homo sapiens, UniProt P16591); assay: Inhibition of FER
[12] = target: Vascular endothelial growth factor receptor 2 (Homo sapiens, UniProt P35968); assay: Inhibition of KDR
[13] = target: Dual specificity mitogen-activated protein kinase kinase 6 (Homo sapiens, UniProt P52564); assay: Inhibition of MKK6
[14] = target: Serine/threonine-protein kinase TBK1 (Homo sapiens, UniProt Q9UHD2); assay: Inhibition of TBK1
[15] = target: Tyrosine-protein kinase Fes/Fps (Homo sapiens, UniProt P07332); assay: Inhibition of FES
[16] = target: Protein kinase C theta type (Homo sapiens, UniProt Q04759); assay: Inhibition of PKCtheta
[17] = target: Dual specificity mitogen-activated protein kinase kinase 1 (Homo sapiens, UniProt Q02750); assay: Inhibition of MEK1
Ceramide kinase = Ceramide kinase (Homo sapiens, UniProt Q8TCT0); assay: Inhibition of CERK
[18] = target: Tyrosine-protein kinase JAK2 (Homo sapiens, UniProt O60674); assay: Inhibition of JAK2
[19] = target: Ribosomal protein S6 kinase alpha-5 (Homo sapiens, UniProt O75582); assay: Inhibition of MSK1
[20] = target: Ribosomal protein S6 kinase beta-1 (Homo sapiens, UniProt P23443); assay: Inhibition of P70S6K1
[21] = target: Mitogen-activated protein kinase kinase kinase 8 (Homo sapiens, UniProt P41279); assay: Inhibition of COT
[22] = target: Serine/threonine-protein kinase Chk1 (Homo sapiens, UniProt O14757); assay: Inhibition of CHEK1
[23] = target: Serine/threonine-protein kinase PLK3 (Homo sapiens, UniProt Q9H4B4); assay: Inhibition of PLK3
Ephrin type-B receptor 2 = Ephrin type-B receptor 2 (Homo sapiens, UniProt P29323); assay: Inhibition of EPHB2
[24] = target: Interleukin-1 receptor-associated kinase 4 (Homo sapiens, UniProt Q9NWZ3); assay: Inhibition of IRAK4
[25] = target: Mitogen-activated protein kinase 11 (Homo sapiens, UniProt Q15759); assay: Inhibition of P38beta

Cyclin-dependent kinase 1, sequence (P06493 whole entry): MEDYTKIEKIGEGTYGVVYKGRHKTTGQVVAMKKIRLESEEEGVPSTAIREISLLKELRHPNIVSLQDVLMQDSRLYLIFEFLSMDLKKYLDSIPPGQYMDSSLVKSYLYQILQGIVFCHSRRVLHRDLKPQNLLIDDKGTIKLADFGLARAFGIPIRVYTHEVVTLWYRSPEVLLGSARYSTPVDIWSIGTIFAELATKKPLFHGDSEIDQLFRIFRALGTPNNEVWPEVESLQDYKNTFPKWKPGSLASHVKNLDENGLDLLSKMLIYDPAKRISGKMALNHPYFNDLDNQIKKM
Mitogen-activated protein kinase kinase kinase 8, sequence (P41279 whole entry): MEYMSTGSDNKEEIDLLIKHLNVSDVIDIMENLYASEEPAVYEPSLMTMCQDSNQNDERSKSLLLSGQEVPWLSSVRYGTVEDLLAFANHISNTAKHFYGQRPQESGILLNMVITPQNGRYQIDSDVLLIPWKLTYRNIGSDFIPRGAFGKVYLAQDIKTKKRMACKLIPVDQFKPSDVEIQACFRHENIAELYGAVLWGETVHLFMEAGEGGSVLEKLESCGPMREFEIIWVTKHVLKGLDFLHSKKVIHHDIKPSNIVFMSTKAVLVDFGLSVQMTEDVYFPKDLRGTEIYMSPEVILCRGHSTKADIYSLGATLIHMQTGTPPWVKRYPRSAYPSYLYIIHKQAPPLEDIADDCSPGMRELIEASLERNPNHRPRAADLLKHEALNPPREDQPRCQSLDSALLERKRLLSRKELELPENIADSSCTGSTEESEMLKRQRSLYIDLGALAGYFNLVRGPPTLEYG
Proto-oncogene tyrosine-protein kinase Src, sequence (P12931 2-536 limits assumed): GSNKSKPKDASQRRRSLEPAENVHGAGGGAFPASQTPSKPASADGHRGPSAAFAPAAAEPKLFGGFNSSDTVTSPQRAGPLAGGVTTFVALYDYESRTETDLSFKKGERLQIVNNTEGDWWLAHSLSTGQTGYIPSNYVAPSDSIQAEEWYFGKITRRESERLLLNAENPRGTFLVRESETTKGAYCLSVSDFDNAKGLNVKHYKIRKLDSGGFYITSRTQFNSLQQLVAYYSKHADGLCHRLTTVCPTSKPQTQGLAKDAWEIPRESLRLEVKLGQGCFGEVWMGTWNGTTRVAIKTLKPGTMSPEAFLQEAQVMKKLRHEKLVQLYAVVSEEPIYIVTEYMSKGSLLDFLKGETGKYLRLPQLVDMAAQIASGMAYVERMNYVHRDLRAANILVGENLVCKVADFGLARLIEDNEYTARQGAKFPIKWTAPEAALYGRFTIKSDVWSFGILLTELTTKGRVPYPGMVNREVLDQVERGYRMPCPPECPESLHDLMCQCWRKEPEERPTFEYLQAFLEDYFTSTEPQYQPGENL
Vascular endothelial growth factor receptor 2, sequence (P35968 whole entry): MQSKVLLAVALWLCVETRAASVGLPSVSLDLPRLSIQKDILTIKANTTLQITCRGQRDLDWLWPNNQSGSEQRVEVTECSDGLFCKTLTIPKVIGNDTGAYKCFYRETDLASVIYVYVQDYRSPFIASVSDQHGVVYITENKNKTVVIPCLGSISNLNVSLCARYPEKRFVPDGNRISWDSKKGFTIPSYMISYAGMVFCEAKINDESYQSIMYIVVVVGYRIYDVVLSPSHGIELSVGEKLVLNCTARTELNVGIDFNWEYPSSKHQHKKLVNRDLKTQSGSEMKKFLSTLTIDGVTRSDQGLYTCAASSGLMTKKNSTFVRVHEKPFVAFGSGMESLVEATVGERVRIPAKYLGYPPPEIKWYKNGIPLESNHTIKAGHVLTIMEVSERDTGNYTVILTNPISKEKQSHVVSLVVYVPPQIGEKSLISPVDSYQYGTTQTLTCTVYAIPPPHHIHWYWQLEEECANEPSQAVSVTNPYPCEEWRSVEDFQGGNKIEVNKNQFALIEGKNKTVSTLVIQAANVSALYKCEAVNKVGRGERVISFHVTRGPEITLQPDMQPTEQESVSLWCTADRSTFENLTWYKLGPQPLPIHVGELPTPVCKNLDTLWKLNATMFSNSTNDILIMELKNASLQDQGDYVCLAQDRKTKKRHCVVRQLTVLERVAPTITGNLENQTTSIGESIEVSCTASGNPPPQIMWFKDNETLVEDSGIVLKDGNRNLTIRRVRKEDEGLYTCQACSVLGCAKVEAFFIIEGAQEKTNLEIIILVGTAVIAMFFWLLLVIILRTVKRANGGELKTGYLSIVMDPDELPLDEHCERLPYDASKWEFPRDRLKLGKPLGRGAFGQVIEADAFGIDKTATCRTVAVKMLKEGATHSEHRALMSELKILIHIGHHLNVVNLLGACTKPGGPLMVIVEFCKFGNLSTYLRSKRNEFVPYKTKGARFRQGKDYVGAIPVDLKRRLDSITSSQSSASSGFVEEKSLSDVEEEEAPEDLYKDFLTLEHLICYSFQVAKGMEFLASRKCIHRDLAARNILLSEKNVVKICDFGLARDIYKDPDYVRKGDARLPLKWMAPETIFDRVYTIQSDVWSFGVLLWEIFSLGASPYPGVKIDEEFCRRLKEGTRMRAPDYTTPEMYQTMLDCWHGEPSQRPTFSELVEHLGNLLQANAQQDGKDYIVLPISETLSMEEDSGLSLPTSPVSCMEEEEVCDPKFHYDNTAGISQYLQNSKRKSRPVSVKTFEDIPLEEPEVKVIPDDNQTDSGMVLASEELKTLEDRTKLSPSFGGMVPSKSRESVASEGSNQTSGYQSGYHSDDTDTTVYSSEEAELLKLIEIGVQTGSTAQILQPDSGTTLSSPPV
Protein kinase C theta type, sequence (Q04759 whole entry): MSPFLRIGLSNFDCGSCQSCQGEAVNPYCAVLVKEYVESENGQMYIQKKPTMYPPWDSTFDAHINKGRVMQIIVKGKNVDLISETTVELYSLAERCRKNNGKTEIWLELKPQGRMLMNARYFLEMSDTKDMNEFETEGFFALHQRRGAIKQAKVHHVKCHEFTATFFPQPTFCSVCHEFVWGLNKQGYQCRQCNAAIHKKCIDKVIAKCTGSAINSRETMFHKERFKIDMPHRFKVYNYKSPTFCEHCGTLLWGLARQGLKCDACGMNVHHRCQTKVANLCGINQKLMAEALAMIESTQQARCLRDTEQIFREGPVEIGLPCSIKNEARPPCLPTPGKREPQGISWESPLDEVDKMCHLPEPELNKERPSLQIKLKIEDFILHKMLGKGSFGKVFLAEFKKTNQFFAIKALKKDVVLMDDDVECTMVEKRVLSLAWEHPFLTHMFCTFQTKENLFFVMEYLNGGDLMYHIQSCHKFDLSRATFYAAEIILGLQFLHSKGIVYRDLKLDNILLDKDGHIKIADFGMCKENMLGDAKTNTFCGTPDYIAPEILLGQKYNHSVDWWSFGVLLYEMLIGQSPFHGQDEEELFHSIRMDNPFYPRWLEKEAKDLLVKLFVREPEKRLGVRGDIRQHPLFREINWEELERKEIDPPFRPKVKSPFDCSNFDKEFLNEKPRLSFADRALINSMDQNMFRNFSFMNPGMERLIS
Ribosomal protein S6 kinase beta-1, sequence (P23443 whole entry): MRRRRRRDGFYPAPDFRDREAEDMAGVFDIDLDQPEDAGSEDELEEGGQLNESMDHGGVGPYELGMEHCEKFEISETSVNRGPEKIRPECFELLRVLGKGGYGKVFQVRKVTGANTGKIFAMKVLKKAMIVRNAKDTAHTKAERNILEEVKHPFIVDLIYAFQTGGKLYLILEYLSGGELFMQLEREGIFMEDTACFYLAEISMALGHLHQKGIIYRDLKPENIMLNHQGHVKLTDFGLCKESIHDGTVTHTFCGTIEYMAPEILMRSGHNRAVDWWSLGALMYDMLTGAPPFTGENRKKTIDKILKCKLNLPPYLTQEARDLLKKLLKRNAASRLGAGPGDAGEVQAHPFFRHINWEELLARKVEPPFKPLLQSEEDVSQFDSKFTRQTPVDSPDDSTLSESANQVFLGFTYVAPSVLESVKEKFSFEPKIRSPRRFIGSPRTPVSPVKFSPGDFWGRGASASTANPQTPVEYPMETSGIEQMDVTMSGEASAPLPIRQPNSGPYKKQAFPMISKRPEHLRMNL
Ribosomal protein S6 kinase alpha-5, sequence (O75582 whole entry): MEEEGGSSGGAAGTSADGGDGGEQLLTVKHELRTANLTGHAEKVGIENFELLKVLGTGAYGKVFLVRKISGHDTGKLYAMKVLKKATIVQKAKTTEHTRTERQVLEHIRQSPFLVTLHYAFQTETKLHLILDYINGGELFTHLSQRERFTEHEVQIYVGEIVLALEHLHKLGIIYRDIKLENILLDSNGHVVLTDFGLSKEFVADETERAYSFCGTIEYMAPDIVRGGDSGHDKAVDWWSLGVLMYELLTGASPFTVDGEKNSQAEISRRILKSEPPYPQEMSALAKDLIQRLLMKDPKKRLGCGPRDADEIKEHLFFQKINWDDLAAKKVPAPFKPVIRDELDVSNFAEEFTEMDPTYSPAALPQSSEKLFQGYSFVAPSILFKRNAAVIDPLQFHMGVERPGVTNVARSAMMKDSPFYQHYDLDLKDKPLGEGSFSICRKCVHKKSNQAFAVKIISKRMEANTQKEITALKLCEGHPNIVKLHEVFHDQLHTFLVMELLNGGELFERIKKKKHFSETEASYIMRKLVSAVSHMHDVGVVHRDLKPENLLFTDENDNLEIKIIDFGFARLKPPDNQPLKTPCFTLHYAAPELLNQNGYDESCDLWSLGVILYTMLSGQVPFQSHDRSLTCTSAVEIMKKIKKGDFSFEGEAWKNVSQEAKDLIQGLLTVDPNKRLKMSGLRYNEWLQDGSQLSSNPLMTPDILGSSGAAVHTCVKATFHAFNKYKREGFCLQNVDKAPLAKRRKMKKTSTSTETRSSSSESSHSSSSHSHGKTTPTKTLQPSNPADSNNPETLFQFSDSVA
Dual specificity mitogen-activated protein kinase kinase 6, sequence (P52564 whole entry): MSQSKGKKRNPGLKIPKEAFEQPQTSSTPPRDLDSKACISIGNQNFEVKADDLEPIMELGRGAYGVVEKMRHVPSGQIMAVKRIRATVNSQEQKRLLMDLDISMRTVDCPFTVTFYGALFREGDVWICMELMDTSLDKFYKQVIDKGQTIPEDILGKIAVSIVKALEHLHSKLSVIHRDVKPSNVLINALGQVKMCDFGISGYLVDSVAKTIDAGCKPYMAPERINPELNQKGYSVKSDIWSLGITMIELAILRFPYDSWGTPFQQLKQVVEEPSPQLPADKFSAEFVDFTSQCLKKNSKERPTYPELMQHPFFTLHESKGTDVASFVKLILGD

Q: With CNc1cncc(-c2c[nH]c(=O)c(NC(=O)c3ccc(N4CCC[C@H]4CN4CCCC4)cc3)c2)n1 as the compound, how does the Ki [1] read?
A: Its Ki is greater than 1000 nM.

Q: And the Ki [2]?
A: Its Ki is 120 nM.

Q: And the Ki (Aurora kinase A)?
A: Its Ki is greater than 1000 nM.

Q: What about the logD [3] of the same compound?
A: Its logD is 2.8.

Q: What about the Ki [4] of the same compound?
A: Its Ki is 20 nM.

Q: And the Ki [5]?
A: Its Ki is 7 nM.

Q: And the Ki [6]?
A: The Ki was greater than 1000 nM.

Q: What about the Ki [7] of the same compound?
A: The Ki was greater than 1000 nM.

Q: What about the Ki [8] of the same compound?
A: The Ki was greater than 1000 nM.

Q: And the Ki [9]?
A: The Ki was greater than 1000 nM.

Q: What about the Ki [10] of the same compound?
A: Its Ki is greater than 1000 nM.

Q: And the Ki [11]?
A: The Ki was greater than 1000 nM.

Q: What about the Ki [12] of the same compound?
A: The Ki was 430 nM.

Q: And the Ki [13]?
A: Its Ki is greater than 1000 nM.

Q: And the Ki [14]?
A: The Ki was greater than 1000 nM.

Q: And the Ki [15]?
A: The Ki was greater than 1000 nM.

Q: What about the Ki [16] of the same compound?
A: Its Ki is greater than 2000 nM.

Q: And the Ki [17]?
A: The Ki was greater than 1000 nM.

Q: And the Ki (Ceramide kinase)?
A: The Ki was greater than 1000 nM.

Q: What about the Ki [18] of the same compound?
A: The Ki was 370 nM.

Q: And the Ki [19]?
A: Its Ki is greater than 1000 nM.

Q: And the Ki [20]?
A: Its Ki is greater than 1000 nM.

Q: And the Ki [21]?
A: The Ki was greater than 1000 nM.

Q: And the Ki [22]?
A: Its Ki is greater than 1000 nM.

Q: What about the Ki [23] of the same compound?
A: Its Ki is greater than 1000 nM.

Q: And the Ki (Ephrin type-B receptor 2)?
A: The Ki was greater than 1000 nM.

Q: What about the Ki [24] of the same compound?
A: Its Ki is greater than 1000 nM.

Q: What about the Ki [25] of the same compound?
A: The Ki was greater than 1000 nM.
